Source: patent US20200268711A1, “Use Of Carbamate Compound For Reducing Or Treating Developmental Disorders Including Fragile X Syndrome, Angelman Syndrome Or Rett Syndrome” (SK BIOPHARMACEUTICALS CO., LTD., priority 2017, published 2020)

Key:
Type in all cases: in vivo
[1] = system: Fmr1 gene-deficient mouse; experiment: Audiogenic seizure test in Fmr1 gene-deficient mouse model; settings: for Percent seized / Percent survival / Time to seizure occurrence / Time to respiratory arrest: 30 minutes before the test; for Time to seizure occurrence: 135 dB sound, 300 seconds if seizure does not occur; for Time to respiratory arrest: 300 seconds if mouse survives without respiratory arrest; for Median seizure score (seizure intensity level): compared to the vehicle administration group, score 0-5
Method: (§1) Male FVB.129P2-Pde6b^+ Tyr^c-ch Fmr1^tm1Cgr/J gene-deficient mice were purchased from Jackson Laboratories, and audiogenic seizure experiments were performed at 3 weeks of age. After purchase, the experimental animals were maintained under a controlled lighting environment (12 hours lighting/12 hours non-lighting) and maintained at a temperature of 20-23° C. and about 50% relative humidity. Food and water were provided ad libitum. Mice were randomly divided into groups. The test was carried out under lighting.
MPEP (2-methyl-6-(phenylethynyl)pyridine) HCl was used as a positive control, dissolved in sterile injectable saline, and administered intraperitoneally at a dose of 30 mg/kg. MPEP was prepared at a volume of 10 ml/kg and administered 30 minutes before the test.
Test Compound was dissolved in 30% PEG 300, and two doses of 10 mg/kg and 20 mg/kg were used, Test Compound was prepared at a volume of 10 ml/kg and administered intraperitoneally 30 minutes before the test. As a negative control, a vehicle (30% PEG 300) was administered.
Vehicle, MPEP or Test Compound was administered to mice of 21 days of age 30 minutes before the test. Mice were placed in a Plexiglas chamber for 15 seconds and exposed to 135 decibels (dB) of sound. During the test for 5 minutes, the mice were scored as following criteria based on the reaction of the mouse, the time required until the reaction and the intensity of the seizure.
1: Wild running and jumping
The following endpoints were measured and observed, and in the case of animals that had no reaction, the time to reaction was set to 300 seconds for convenience in analysis.
2. Time to respiratory arrest (300 seconds if mouse survives without respiratory arrest)
Data were analyzed by ANOVA, and if appropriate, Fisher PLSD post-hoc analysis was performed. The average seizure intensity was analyzed non-parametrically. The effect was defined as significant when p<0.05. Results are represented as mean values ±standard error.

[2] = system: Fmr1 gene-deficient mouse; experiment: Open field test (locomotor activity, rearing) in Fmr1 gene-deficient mouse model; settings: 20 mg/kg i.p. once a day, day 4 of administration; 60 minutes; in comparison with the vehicle administration group
Method: as §1, with “Laboratories.” for “Laboratories, and audiogenic seizure experiments were performed at 3 weeks of age.”, “The drugs were administered once a day for 6 days at 8 weeks of age. The” for “The”
(§2) Test Compound was dissolved in 30% PEG 300, and two doses of 10 mg/kg and 20 mg/kg were used. Test Compound was prepared at a volume of 10 ml/kg and administered intraperitoneally 30 minutes before the test.
1. Locomotor activity: Locomotor activity test was performed on day 4 of administration in the course of administering daily for 6 days in 8-week-old mice.
A Plexiglas square chamber (27.3×27.3×20.3 cm) surrounded by infrared rays was used to measure the horizontal and vertical movements. Mice were acclimatized to the laboratory for at least 1 hour before the test and then placed in the center of the chamber to measure activity in the open field for 1 hour. […] The distance was measured by the breakage of the horizontal light beam by the movement of the mouse. […]
The data were analyzed by ANOVA, and if appropriate, Fisher PLSD post-hoc analysis was performed using Statview software. […]

[3] = system: Fmr1 gene-deficient mouse; experiment: Fear conditioning test (contextual and cued) in Fmr1 gene-deficient mouse model; settings: day 6; for Freezing during contextual fear conditioning test: in comparison with the vehicle administration group
Method: as §1, with “Laboratories.” for “Laboratories, and audiogenic seizure experiments were performed at 3 weeks of age.”, “The drugs were administered once a day for 6 days at 8 weeks of age. The” for “The”
as §2
2. Fear conditioning test: On day 5 and day 6 of administration, and 30 minutes after administration, training and drug efficacy tests were carried out, respectively. The test was performed using a fear conditioning system manufactured by Coulbourn Instruments (PA, USA).
Training was done 30 minutes after administration on day 5 of administration. The mice were placed in a conditioning chamber and accustomed to the environment for 120 seconds, and then exposed to 6 kHz, 75 dB sound stimulus (conditioned stimulus) for 20 seconds. 30 seconds after the end of the conditioned stimulation, 0.5 mA electrostimulation shock (unconditioned stimulus) was applied to the mouse paws. Mice were left in the conditioning chamber for an additional 60 seconds and then returned to the original cage.
On the morning of day 6, 30 minutes after administration mice were placed in the same chamber as the previous day, and then trained for 5 minutes without shock or other obstructions in order to perform a drug efficacy test for contextual memory. On day 6, after 4 hours of the contextual conditioning test, a drug efficacy test was performed on cued memory by stimulus signals. The mice were exposed to a new environment for 2 minutes (before the stimulation signal), and conditions and stimulation were applied three times in total for 20 seconds. Freezing behavior was defined as the complete loss of movement and was captured using a video system and FreezeView software (Coulbourn Instrument Penn., USA). The chamber was cleaned with 70% ethanol with each mouse change.
The data were analyzed by ANOVA, and if appropriate, Fisher PLSD post-hoc analysis was performed using Statview software. The effect was defined as significant when p<0.05. Results are represented as mean values ±standard error.

[4] = 20 mg/kg i.p. once a day, compared with the vehicle administration group

SMILES: Cc1cccc(C#Cc2ccccc2)n1 [MPEP, 2-methyl-6-(phenylethynyl)pyridine, reference compound]
- Percent seized ([1]; 30 mg/kg i.p.): No seizures occurred
- Percent survival ([1]; 30 mg/kg i.p.): 100%
- Time to seizure occurrence ([1]; 30 mg/kg i.p.): 300 s
- Time to respiratory arrest ([1]; 30 mg/kg i.p.): 300 s
- Median seizure score (seizure intensity level) ([1]; 30 mg/kg i.p.): significantly reduced

SMILES: NC(=O)O[C@@H](Cn1ncnn1)c1ccccc1Cl [Test Compound, Carbamic acid (R)-1-(2-chlorophenyl)-2-tetrazol-2-yl-ethyl ester]
- Percent seized ([1]; 10 mg/kg i.p.): No seizures occurred
- Percent survival ([1]; 10 mg/kg i.p.): 100%
- Time to seizure occurrence ([1]; 10 mg/kg i.p.): 300 s
- Time to respiratory arrest ([1]; 10 mg/kg i.p.): 300 s
- Median seizure score (seizure intensity level) ([1]; 10 mg/kg i.p.): significantly reduced
- Percent seized ([1]; 20 mg/kg i.p.): No seizures occurred
- Percent survival ([1]; 20 mg/kg i.p.): 100%
- Time to seizure occurrence ([1]; 20 mg/kg i.p.): 300 s
- Time to respiratory arrest ([1]; 20 mg/kg i.p.): 300 s
- Median seizure score (seizure intensity level) ([1]; 20 mg/kg i.p.): significantly reduced
- Locomotor activity (total distance traveled) [2]: significantly decreased
- Rearing activity [2]: decreased
- Rate of freezing in cue test, while the stimulus signal was given ([3]; 10 mg/kg i.p. once a day, compared with the vehicle administration group): significantly increased
- Freezing during contextual fear conditioning test ([3]; 10 mg/kg i.p. once a day): significantly increased
- Freezing in cue test, after the stimulus signal [3, 4]: significant increase
- Rate of freezing in cue test, while the stimulus signal was given [3, 4]: significantly increased
- Freezing during contextual fear conditioning test ([3]; 20 mg/kg i.p. once a day): significantly increased
